Experimental data from ChEMBL document CHEMBL1154724, “Synthesis and antimicrobial activity evaluation of new 1,2,4-triazoles and 1,3,4-thiadiazoles bearing imidazo[2,1-b]thiazole moiety” (2010).
In brackets after ≈: the same amount, converted by molar mass. Activity calls are given as the source filed them. No cut-off for these calls is given here.

Assays:
Format in all cases: functional
Trichophyton erinacei = assay: Antifungal activity against Trichophyton mentagrophytes var. erinacei NCPF 375 after 7 days by microbroth dilution method; settings: NCPF 375, 168 h, read-out: MIC100
Candida parapsilosis = assay: Antifungal activity against Candida parapsilosis ATCC 22019 after 48 hrs by microbroth dilution method; settings: Lodderomyces parapsilosis, ATCC 22019, 48 h
Pseudomonas aeruginosa = assay: Antibacterial activity against Pseudomonas aeruginosa ATCC 27853 after 16 to 20 hrs by microbroth dilution method
[1] = test system: Mycobacterium tuberculosis; assay: Antimycobacterial activity against Mycobacterium tuberculosis H37Rv ATCC 27294 by microplate alamar blue assay
Trichophyton tonsurans = assay: Antifungal activity against Trichophyton tonsurans NCPF 245 after 7 days by microbroth dilution method; settings: NCPF 245, 168 h, read-out: MIC100
Pichia kudriavzevii = assay: Antifungal activity against Candida krusei ATCC 6258 after 48 hrs by microbroth dilution method; settings: ATCC 6258, 48 h
Escherichia coli = assay: Antibacterial activity against Escherichia coli ATCC 25922 after 16 to 20 hrs by microbroth dilution method
Staphylococcus aureus = assay: Antibacterial activity against Staphylococcus aureus ATCC 29213 after 16 to 20 hrs by microbroth dilution method
Candida albicans = assay: Antifungal activity against Candida albicans ATCC 10231 after 48 hrs by microbroth dilution method; settings: ATCC 10231, 48 h
Nannizzia gypsea = assay: Antifungal activity against Microsporum gypseum NCPF 580 after 7 days by microbroth dilution method; settings: NCPF 580, 168 h, read-out: MIC100
[2] = Mycobacterium tuberculosis, H37Rv ATCC 27294

Structure (SMILES) | MIC (Trichophyton erinacei) [µg/mL] | MIC (Candida parapsilosis) [µg/mL] | MIC (Pseudomonas aeruginosa) [µg/mL] | inhibition [1] | MIC90 [1, 2] [µg/mL] | MIC (Trichophyton tonsurans) [µg/mL] | MIC (Pichia kudriavzevii) [µg/mL] | MIC (Escherichia coli) [µg/mL] | MIC (Staphylococcus aureus) [µg/mL] | MIC (Candida albicans) [µg/mL] | MIC (Nannizzia gypsea) [µg/mL] | inhibition (INH) [1] [%] | MIC ([1]; Mycobacterium tuberculosis, H37Rv ATCC 27294, read-out: MIC100) [µg/mL]
Cn1c(Cc2csc3nc(-c4ccc(Br)cc4)cn23)n[nH]c1=S | 8 (≈ 19.7 µM) | 32 (≈ 78.8 µM) | > 64 | inactive | > 6.25 | 16 (≈ 39.4 µM) | 32 (≈ 78.8 µM) | > 64 | > 64 | 32 (≈ 78.8 µM) | 16 (≈ 39.4 µM) | – | –
S=c1[nH]nc(Cc2csc3nc(-c4ccc(Br)cc4)cn23)n1-c1ccccc1 | 32 (≈ 68.3 µM) | 32 (≈ 68.3 µM) | > 64 | – | > 6.25 | 16 (≈ 34.2 µM) | 32 (≈ 68.3 µM) | > 64 | 64 (≈ 137 µM) | 32 (≈ 68.3 µM) | 32 (≈ 68.3 µM) | 3 | –
S=c1[nH]nc(Cc2csc3nc(-c4ccc(Br)cc4)cn23)n1-c1ccc(Cl)cc1 | 32 (≈ 63.6 µM) | > 64 | > 64 | inactive | > 6.25 | 32 (≈ 63.6 µM) | 64 (≈ 127 µM) | > 64 | > 64 | 64 (≈ 127 µM) | 32 (≈ 63.6 µM) | – | –
CNc1nnc(Cc2csc3nc(-c4ccc(Br)cc4)cn23)s1 | 16 (≈ 39.4 µM) | 16 (≈ 39.4 µM) | > 64 | – | – | 8 (≈ 19.7 µM) | 16 (≈ 39.4 µM) | > 64 | > 64 | 32 (≈ 78.8 µM) | 16 (≈ 39.4 µM) | – | –
CO[C@H]1/C=C/O[C@@]2(C)Oc3c(C)c(O)c4c(O)c(c(/C=N/N5CCN(C)CC5)c(O)c4c3C2=O)NC(=O)/C(C)=C\C=C\[C@H](C)[C@H](O)[C@@H](C)[C@@H](O)[C@@H](C)[C@H](OC(C)=O)[C@@H]1C [RIFAMPIN] | – | – | – | – | – | – | – | – | – | – | – | 97 | 0.25 (≈ 0.304 µM)
CCC(C)n1ncn(-c2ccc(N3CCN(c4ccc(OCC5COC(Cn6cncn6)(c6ccc(Cl)cc6Cl)O5)cc4)CC3)cc2)c1=O (configuration not stated) [ITRACONAZOLE] | – | 0.06 (≈ 0.085 µM) | – | – | – | – | 0.12 (≈ 0.17 µM) | – | – | 0.12 (≈ 0.17 µM) | – | – | –
C[C@@H]1[C@H](O)[C@@H](C)/C=C/C=C/C=C/C=C/C=C/C=C/C=C/[C@H](O[C@@H]2O[C@H](C)[C@@H](O)[C@H](N)[C@@H]2O)C[C@@H]2O[C@](O)(C[C@@H](O)C[C@@H](O)[C@H](O)CC[C@@H](O)C[C@@H](O)CC(=O)O[C@H]1C)C[C@H](O)[C@H]2C(=O)O [AMPHOTERICIN B] | 0.5 (≈ 0.541 µM) | – | – | – | – | 0.25 (≈ 0.271 µM) | – | – | – | – | 0.5 (≈ 0.541 µM) | – | –
CCNc1nnc(Cc2csc3nc(-c4ccc(Br)cc4)cn23)s1 | 16 (≈ 38.1 µM) | 64 (≈ 152 µM) | 64 (≈ 152 µM) | – | – | 8 (≈ 19 µM) | 32 (≈ 76.1 µM) | 32 (≈ 76.1 µM) | 64 (≈ 152 µM) | 64 (≈ 152 µM) | 16 (≈ 38.1 µM) | – | –
CCCn1c(Cc2csc3nc(-c4ccc(Br)cc4)cn23)n[nH]c1=S | 16 (≈ 36.8 µM) | 64 (≈ 147 µM) | > 64 | inactive | > 6.25 | 8 (≈ 18.4 µM) | 64 (≈ 147 µM) | 64 (≈ 147 µM) | 64 (≈ 147 µM) | 32 (≈ 73.7 µM) | 16 (≈ 36.8 µM) | – | –
CCCCn1c(Cc2csc3nc(-c4ccc(Br)cc4)cn23)n[nH]c1=S | 32 (≈ 71.4 µM) | 64 (≈ 143 µM) | 64 (≈ 143 µM) | inactive | > 6.25 | 32 (≈ 71.4 µM) | 64 (≈ 143 µM) | 32 (≈ 71.4 µM) | 32 (≈ 71.4 µM) | 32 (≈ 71.4 µM) | 32 (≈ 71.4 µM) | – | –
Cc1ccc(-n2c(Cc3csc4nc(-c5ccc(Br)cc5)cn34)n[nH]c2=S)cc1 | 16 (≈ 33.2 µM) | 16 (≈ 33.2 µM) | 64 (≈ 133 µM) | – | > 6.25 | 16 (≈ 33.2 µM) | 16 (≈ 33.2 µM) | 64 (≈ 133 µM) | 64 (≈ 133 µM) | 16 (≈ 33.2 µM) | 16 (≈ 33.2 µM) | 4 | –
C=CCn1c(Cc2csc3nc(-c4ccc(Br)cc4)cn23)n[nH]c1=S | 64 (≈ 148 µM) | 64 (≈ 148 µM) | > 64 | – | > 6.25 | 32 (≈ 74 µM) | 64 (≈ 148 µM) | > 64 | > 64 | 64 (≈ 148 µM) | 64 (≈ 148 µM) | 1 | –
CCn1c(Cc2csc3nc(-c4ccc(Br)cc4)cn23)n[nH]c1=S | 16 (≈ 38.1 µM) | 32 (≈ 76.1 µM) | > 64 | inactive | > 6.25 | 8 (≈ 19 µM) | 32 (≈ 76.1 µM) | 64 (≈ 152 µM) | 64 (≈ 152 µM) | 32 (≈ 76.1 µM) | 16 (≈ 38.1 µM) | – | –
S=c1[nH]nc(Cc2csc3nc(-c4ccc(Br)cc4)cn23)n1-c1ccc(Br)cc1 | 64 (≈ 117 µM) | 32 (≈ 58.5 µM) | > 64 | inactive | > 6.25 | 32 (≈ 58.5 µM) | 64 (≈ 117 µM) | > 64 | > 64 | 64 (≈ 117 µM) | 64 (≈ 117 µM) | – | –
C[C@H]1COc2c(N3CCN(C)CC3)c(F)cc3c(=O)c(C(=O)O)cn1c23.C[C@H]1COc2c(N3CCN(C)CC3)c(F)cc3c(=O)c(C(=O)O)cn1c23.O [LEVOFLOXACIN] | – | – | 0.5 | – | – | – | – | – | 0.12 | – | – | – | –
